This is an account of results in patent US20140039047A1, “METHODS FOR REGULATING SIRTUIN GENE EXPRESSION” (priority 2011, published 2014).

What all share (assay): Quantitative PCR of sirtuin gene expression in canine adipocytes treated with Equol
Holding throughout (type): cell-based
Holding throughout (settings): 24 hours, terminally differentiated canine adipocytes, normalized to cyclophilin A (PPIA), n=3

The test system of one assay is SIRT1. The protocol: (§1) Treatment: Terminally differentiated canine adipocytes were exposed to 200, 25, and 0 uM Equol for 24 hours. Cells were collected for RNA isolation.
(§2) RNA Isolation: Treatment cell samples were vortexed and homogenized using a Quiashredder (Qiagen, Valencia, Calif.) column according to manufacturer's directions. The homogenized lysate was collected and 1 equal volume of 64% ethanol was added to it. This mixture was then applied to an RNAqueous™ filter cartridge, (Ambion Inc., Austin, Tex.) 700 uL at a time, and centrifuged for one minute at 10,000 rpm. The cartridge was washed using 700 uL wash solution #1 and 500 uL wash solution #⅔ with centrifugation at 10,000 rpm for one minute for each wash. The filter cartridge was dried by centrifugation (10,000 rpm) for one minute. RNA was eluted three times by centrifugation (as above) using 30 uL aliquots of 70-80° C. elution solution. The resulting RNA was DNAse-treated and quantitated in a Beckman DU 640B spectrophotometer (Beckman Coulter, Inc., Brea, Calif.) at 260 nm. Additionally, quantity and quality were assessed using a bioanalyzer (Agilent, Santa Clara, Calif.) according to manufacturer's directions.
(§3) Quantitative PCR: All samples were run singularly against each primer/probe set to determine what standard curve(s) should be used. Standard curves were generated using serial dilutions of RNA from experimental samples with the lowest CT (cycle threshold) for a given target. 1-2 samples were re-reverse transcribed and a 1:5 serial dilution were used as the standard curve for a given target. Targets run included sirtuin −1, −2, −3 and −6. Values were normalized to cyclophilin A (PPIA) levels as determined by quantitative PCR. Inductions were calculated from each of the lowest sample's normalized value. Each set was run with n=3.

Another assay deals with SIRT2. The protocol:
as §1, §2, §3

For the next assay, the system named is SIRT3. As to the method:
as §1, §2, §3

A further assay deals with SIRT6. The protocol:
as §1, §2, §3

In the case of `Oc1ccc([C@H]2COc3cc(O)ccc3C2)cc1` [Equol], the “Expression of SIRT1 gene (relative expression)” value with SIRT1 (25 uM Equol) came out at 1.17; in the assay with SIRT1 (200 uM Equol) it was 1.80. Also, the “Expression of SIRT2 gene (relative expression)” value is 1.22 with SIRT2 (25 uM Equol) and 2.37 with SIRT2 (200 uM Equol). Moreover, the “Expression of SIRT3 gene (relative expression)” value in the assay with SIRT3 (25 uM Equol) came to 10.86; in the assay with SIRT3 (200 uM Equol) it was 17.21. The entries for the “Expression of SIRT6 gene (relative expression)” value with SIRT6 (25 uM Equol) and in the assay with SIRT6 (200 uM Equol) were 1.10 and 1.23, respectively.
